Experiment [1] deals with HCT 116 (colon) cells. Nature of the experiment: Anti-cancer screen (MTT), HCT 116. To be noted: Homo sapiens, HCT-116, HCT116, 48 hours, MTT; for GI50: read-out: Cell growth inhibition HCT116 (Colon) GI50; for CC50: read-out: Cell growth inhibition HCT116 (Colon) LC50; for IC (TGI): read-out: Cell growth inhibition HCT116 (Colon) TGI. The experiment is classed as cell-based. The procedure, abridged:
(§1)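 Seeding at 5×10^4 cells/mL preceded 24 h culture, after which compounds diluted from DMSO stocks were added at final 0.01, 0.1, 1, 10 and 100 μM for 48 h. Viability was then read by MTT (3 h, 37 °C) at A570.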

Experiment [2] relates to HDAC (Mouse Liver Extract). Kind of experiment: HDAC inhibition assay using Boc-Lys(Ac)-AMC substrate. The experiment is classed as biochemical. To be noted: mouse liver enzyme. The procedure, abridged: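 Boc-Lys(Ac)-AMC substrate incubated with mouse liver extract as HDAC source, 5 min preincubation then 30 min at 37° C. Trypsin stop solution added (37° C., 15-30 min) to release AMC, read at ex 360/em 460 nm; buffer-only and substrate-only wells as blanks.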

The subject of experiment [3] is NCIH460 (lung) cells. Kind of experiment: Anti-cancer screen (MTT), NCIH460. The experiment is classed as cell-based. As to conditions: Homo sapiens, NCI-H460, NCIH460, 48 hours, MTT; for GI50: read-out: Cell growth inhibition NCIH460 (Lung) GI50; for LC50: read-out: Cell growth inhibition NCIH460 (Lung) LC50; for IC (TGI): read-out: Cell growth inhibition NCIH460 (Lung) TGI. The procedure, abridged:
as §1

The subject of experiment [4] is NCIH460, HCT116 and U251 cells. Kind of experiment: Anti-cancer screen, mean GI50 over cell lines. To be noted: mean over cell lines; read-out: Cell growth inhibition Mean GI50. The experiment is classed as cell-based. The procedure, abridged: as §1
For experiment [5], the system named is U251 (glioma) cells. Nature of the experiment: Anti-cancer screen (MTT), U251. It is filed as cell-based. As to conditions: Homo sapiens, U-251, U251, 48 hours, MTT; for GI50: read-out: Cell growth inhibition U251 (Glioma) GI50; for LC50 (concentration giving 50% net cell kill relative to the time-zero cell count): read-out: Cell growth inhibition U251 (Glioma) LC50; for IC (TGI): read-out: Cell growth inhibition U251 (Glioma) TGI. The procedure, abridged: as §1

Bounds are passed on as bounds.

As a reminder, the GI50 is the concentration giving 50% growth inhibition. One may read the IC50 as the midpoint of a concentration-inhibition curve. The term LC50 denotes the concentration lethal to half of the exposed cells or organisms.

Consider `CSc1ccc(/C=C(/C(=O)NCCCCCC(=O)NO)c2ccccc2Cl)cc1` [Compound 95, 6-(2-(2-Chlorophenyl)-3-(4-methylthiophenyl)acrylamido)-N-hydroxy hexanamide], for which, in experiment [1], the GI50 amounted to 3000 nM, the CC50 is 66 µM and the IC (TGI) was determined as 14 µM. Moreover, in experiment [2], the “HDAC inhibition % (1 μM)” value stood at 60.8%, the “HDAC inhibition % (10 μM)” value is reported as 92.0% and the concentration for half-maximal inhibition (IC50) worked out at 10 nM. In experiment [3], the GI50 was determined as 6 µM, the LC50 came to 72 µM and the IC (TGI) is 40 µM. The GI50 in experiment [4] amounted to 3000 nM. For the same molecule, in experiment [5], the GI50 was determined as 100 nM, the LC50 (concentration giving 50% net cell kill relative to the time-zero cell count) is 64 µM and the IC (TGI) is 11 µM.
For `COc1ccc(/C=C(/C(=O)NCc2ccc(/C=C/C(=O)NO)cc2)c2ccccc2F)cc1OC` [Compound 78, (1E)-N-(4-(3-(Hydroxyamino)-3-oxoprop-1-enyl)benzyl)-2-(2-fluorophenyl)-3-(3,4-dimethoxyphenyl)acrylamide], in experiment [1], the GI50 turned out to be 4000 nM, the CC50 was > 100 µM and the IC (TGI) worked out at 30 µM. In addition, in experiment [2], the “HDAC inhibition % (1 μM)” value stood at 87.6% and the “HDAC inhibition % (10 μM)” value worked out at 91.3%. In experiment [3], the GI50 worked out at 2 µM, the LC50 was > 100 µM and the IC (TGI) was > 100 µM. Further, the GI50 in experiment [4] came to 2300 nM. Also, in experiment [5], the GI50 is 1000 nM, the LC50 (concentration giving 50% net cell kill relative to the time-zero cell count) was > 100 µM and the IC (TGI) was determined as 8 µM.
With `CSc1ccc(/C=C(/C(=O)NCc2ccc(C(=O)NO)cc2)c2ccsc2)cc1` [Compound 59, 4-((2-(Thiophen-3-yl)-3-(4-methylthiophenyl)acrylamido)methyl)-N-hydroxybenzamide], in experiment [1], the GI50 came to 3000 nM, the CC50 worked out at 60 µM and the IC (TGI) stood at 15 µM. Also, in experiment [2], the “HDAC inhibition % (1 μM)” value worked out at 76.6%, the “HDAC inhibition % (10 μM)” value is 96.3% and the IC50 worked out at 30 nM. In experiment [3], the GI50 is 2.3 µM, the LC50 came out at 30 µM and the IC (TGI) is 7 µM. Besides, in experiment [4], the GI50 is 2300 nM. Besides, in experiment [5], the GI50 was determined as 1500 nM, the LC50 (concentration giving 50% net cell kill relative to the time-zero cell count) stood at 65 µM and the IC (TGI) came to 5.5 µM.
As to `CSc1ccc(/C=C(/C(=O)NCCCCCCC(=O)NO)c2ccc(F)cc2)cc1` [Compound 84, 7-(2-(4-Fluorophenyl)-3-(4-methylthiophenyl)acrylamido)-N-hydroxy heptanamide], in experiment [1], the GI50 is 1200 nM, the CC50 was > 100 µM and the IC (TGI) amounted to 21 µM. For the same molecule, in experiment [2], the “HDAC inhibition % (1 μM)” value was determined as 90.0%, the “HDAC inhibition % (10 μM)” value is listed as 94.3% and the IC50 turned out to be 60 nM. In addition, in experiment [3], the GI50 is 2.3 µM, the LC50 came to 70 µM and the IC (TGI) is 21 µM. The GI50 in experiment [4] turned out to be 2600 nM. In addition, in experiment [5], the GI50 is 4200 nM, the LC50 (concentration giving 50% net cell kill relative to the time-zero cell count) was 95 µM and the IC (TGI) worked out at 21 µM.
As for `CSc1ccc(/C=C(/C(=O)NCCCCCC(=O)NO)c2ccsc2)cc1` [Compound 90, 6-(2-(Thiophen-3-yl)-3-(4-methylthiophenyl)acrylamido)-N-hydroxy hexanamide], in experiment [1], the GI50 was 3000 nM, the CC50 was > 100 µM and the IC (TGI) was determined as 6 µM. Further, in experiment [2], the “HDAC inhibition % (1 μM)” value is recorded as 78.2%, the “HDAC inhibition % (10 μM)” value was 98.9% and the IC50 was determined as 40 nM. For the same molecule, in experiment [3], the GI50 came out at 0.1 µM, the LC50 was 30 µM and the IC (TGI) came to 5 µM. Besides, the GI50 in experiment [4] was found to be 1300 nM. Besides, in experiment [5], the GI50 came to 800 nM, the LC50 (concentration giving 50% net cell kill relative to the time-zero cell count) amounted to 82 µM and the IC (TGI) was 6.1 µM.
For the molecule `COc1cc(/C=C(/C(=O)NCCCCCC(=O)NO)c2ccc(F)cc2)ccc1F` [Compound 91, 6-(2-(4-Fluorophenyl)-3-(4-fluoro-3-methoxyphenyl)acrylamido)-N-hydroxy hexanamide], in experiment [1], the GI50 turned out to be 19000 nM, the CC50 was > 100 µM and the IC (TGI) is > 100 µM. Also, in experiment [2], the “HDAC inhibition % (1 μM)” value is 80.8% and the “HDAC inhibition % (10 μM)” value worked out at 97.3%. Further, in experiment [3], the GI50 was 46 µM, the LC50 is > 100 µM and the IC (TGI) is > 100 µM. For the same molecule, in experiment [4], the GI50 worked out at 22300 nM. Also, in experiment [5], the GI50 was found to be 2000 nM, the LC50 (concentration giving 50% net cell kill relative to the time-zero cell count) was 92 µM and the IC (TGI) was 30 µM.
As to `CSc1ccc(/C=C(/C(=O)NCc2ccc(C(=O)Nc3ccccc3N)cc2)c2ccc(C(F)(F)F)cc2)cc1` [Compound 21, N-(2-Aminophenyl)-4-((3-(4-methylthiophenyl)-2-(4-trifluoromethylphenyl)acrylamido)methyl)benzamide], in experiment [1], the GI50 amounted to 35000 nM, the CC50 was found to be 82 µM and the IC (TGI) turned out to be 56 µM. Also, in experiment [2], the “HDAC inhibition % (1 μM)” value stood at 7.0% and the “HDAC inhibition % (10 μM)” value turned out to be 24.8%. Moreover, in experiment [3], the GI50 is 32 µM, the 50% lethal concentration (LC50) was 78 µM and the IC (TGI) came out at 46 µM. Further, in experiment [4], the GI50 came to 39700 nM. In addition, in experiment [5], the GI50 is 52000 nM, the LC50 (concentration giving 50% net cell kill relative to the time-zero cell count) turned out to be 96 µM and the IC (TGI) stood at 65 µM.
With `COc1ccc(/C=C(/C(=O)NCc2ccc(C(=O)Nc3ccccc3N)cc2)c2ccccc2)c(OC)c1` [Compound 39, N-(2-Aminophenyl)-4-((3-(2,4-dimethoxyphenyl)-2-phenylacrylamido)methyl)benzamide], in experiment [1], the GI50 stood at 700 nM, the CC50 is > 100 µM and the IC (TGI) was determined as 80 µM. Further, in experiment [2], the “HDAC inhibition % (1 μM)” value is listed as 9.1% and the “HDAC inhibition % (10 μM)” value is given as 18.9%. For the same molecule, in experiment [3], the GI50 worked out at 3.2 µM, the LC50 was > 100 µM and the IC (TGI) was > 100 µM. Further, in experiment [4], the GI50 was 2400 nM. In addition, in experiment [5], the GI50 amounted to 3200 nM, the LC50 (concentration giving 50% net cell kill relative to the time-zero cell count) was > 100 µM and the IC (TGI) was 100 µM.
For the molecule `COC(=O)c1ccc(/C=C(/C(=O)NCc2ccc(C(=O)Nc3ccccc3N)cc2)c2ccc(OC)cc2)cc1` [Compound 35, N-(2-Aminophenyl)-4-((3-(4-carbmethoxyphenyl)-2-(4-methoxyphenyl)acrylamido)methyl)benzamide], in experiment [1], the GI50 turned out to be 2000 nM, the CC50 was > 100 µM and the IC (TGI) is > 100 µM. Further, in experiment [2], the “HDAC inhibition % (1 μM)” value came to 24.8% and the “HDAC inhibition % (10 μM)” value came to 41.1%. For the same molecule, in experiment [3], the GI50 is > 100 µM, the LC50 was > 100 µM and the IC (TGI) is > 100 µM. Also, the GI50 in experiment [4] worked out at 2000 nM. Further, in experiment [5], the GI50 is > 100000 nM, the LC50 (concentration giving 50% net cell kill relative to the time-zero cell count) is > 100 µM and the IC (TGI) was > 100 µM.

Values taken from patent publication US8476255B2, “Histone deacetylase inhibitors” (Orchid Chemicals & Pharmaceuticals Limited, priority 2007, dated 2013).
